Reference: US9926275B2 (priority 2013, dated 2018)

Assays:
CB1 receptor [1] = molecular target: T1, CB1 receptor (Homo sapiens, UniProt P21554); assay: β-arrestin recruitment in CNR1 PathHunter cell line, allosteric modulation of CP55,940 response; assay type: cell-based; conditions: for Emax: read-out: β-arrestin activity EMax (%)
Procedure: (§1) For allosteric determination, cells were preincubated with compound followed by agonist challenge at the EC20 concentration of the agonist. 5 μL of 4× compound was added to cells and incubated at 37° C. for 30 minutes. 5 μL of 4× EC20 agonist was added to cells and incubated at 37° C. for 30 minutes.
(§2) Data Analysis: Dose curves were plotted using GraphPad Prism or Activity Base. The percentage activity is calculated using the following formula: % Activity=100%×(1−(mean RLU of test sample−mean RLU of MAX control)/(mean RLU of vehicle control [EC20 for PAM]−mean RLU of MAXcontrol).
(§3) Agonist (CP55,940) dose curves were performed for the CNR1 PathHunter and cAMP Hunter cell lines. […] The cAMP assay was performed in the presence of 20 μM forskolin (EC80).
(§4) In Vitro Evaluation: The in vitro evaluation of the covalent allosteric modulators was performed using as described previously.

CB1 receptor [2] = molecular target: T1, CB1 receptor; assay: DiscoveRx HitHunter cAMP XS+ assay in cAMP Hunter cell line, allosteric modulation of CP55,940 response; assay type: cell-based; conditions: for Emax: read-out: cAMP activity ECMax (%)
Procedure: Once it was established that the cells were healthy and growing normally, cells were passaged from flasks using cell dissociation reagent buffer and seeded into white walled clear bottom 384-well microplates for compound profiling. For profiling, cells were seeded at a density of 10000 cells per well in a total volume of 20 μL and were allowed to adhere and recover overnight prior to compound addition. Cells were treated the following day using the protocols shown below. cAMP modulation was determined using the DiscoveRx HitHunter cAMP XS+ assay.
Media was aspirated from cells and replaced with 10 μL 1:1 HBSS/Hepes: cAMP XS+ Ab reagent. Agonist (CP55,940) dose curves were performed to determine the EC20 value for the testing with the compounds of the present technology. 5 μL of 4× agonist was added to each well with an equal concentration of vehicle present. EC20 agonist concentration was determined directly from agonist dose curve.
as §1
Signal Detection: After appropriate compound incubation, assay signal was generated through incubation with 20 μL cAMP XS+ED/CL lysis cocktail for one hour followed by incubation with 20 μL cAMP XS+EA reagent for three hours at room temperature. Microplates were read following signal generation with a PerkinElmer Envision™ instrument for chemiluminescent signal detection.
as §2, §3, §4

[3] = Table 1, CP55,940 as agonist, read-out: β-arrestin EC50
[4] = Table 1, preincubation with compound, then CP55,940 challenge, 20 μM forskolin
[5] = Table 1, preincubation with compound, then CP55,940 challenge, 20 μM forskolin, read-out: cAMP EC50
[6] = Table 2, covalent allosteric modulators, read-out: β-arrestin activity EC50 (nm)
[7] = Table 2, covalent allosteric modulators, read-out: cAMP activity EC50 (nm)
[8] = Table 2, covalent allosteric modulators

T1 sequence (P21554 whole entry): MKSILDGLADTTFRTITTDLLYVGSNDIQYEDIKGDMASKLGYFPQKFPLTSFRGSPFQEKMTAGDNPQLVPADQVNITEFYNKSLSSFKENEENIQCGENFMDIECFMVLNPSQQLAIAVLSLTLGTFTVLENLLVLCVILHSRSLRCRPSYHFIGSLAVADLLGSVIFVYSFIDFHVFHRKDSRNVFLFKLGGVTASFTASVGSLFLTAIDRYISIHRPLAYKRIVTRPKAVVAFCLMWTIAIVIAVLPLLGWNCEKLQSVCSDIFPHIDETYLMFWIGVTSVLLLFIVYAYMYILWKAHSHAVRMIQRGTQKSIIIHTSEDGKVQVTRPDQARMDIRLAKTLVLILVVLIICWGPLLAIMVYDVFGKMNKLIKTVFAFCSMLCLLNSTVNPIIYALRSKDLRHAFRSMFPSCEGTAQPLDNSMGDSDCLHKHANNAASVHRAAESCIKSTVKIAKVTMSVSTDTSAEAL

O=C(Nc1cccc(-c2cccc(N3CCCC3)n2)c1)Nc1ccc(Cl)cc1CCCCOC1CCCCO1 (centres unmarked) [Compound 23a, 1-(4-Chloro-2-(4-((tetrahydro-2H-pyran-2-yl)oxy)butyl)phenyl)-3-(3-(6-(pyrrolidin-1-yl)pyridin-2-yl)phenyl)urea]
β-arrestin % inhibition (CB1 receptor [1]; Table 1, CP55,940 as agonist): 117%
EC50 (CB1 receptor [1]; [3]): 1090 nM
cAMP % inhibition (CB1 receptor [2]; [4]): 41%
EC50 (CB1 receptor [2]; [5]): 820 nM

O=C(Nc1cccc(-c2cccc(N3CCCC3)n2)c1)Nc1ccc(Cl)c(CCCCOC2CCCCO2)c1 (centres unmarked) [Compound 23b, 1-(4-Chloro-3-(4-((tetrahydro-2H-pyran-2-yl)oxy)butyl)phenyl)-3-(3-(6-(pyrrolidin-1-yl)pyridin-2-yl)phenyl)urea]
β-arrestin % inhibition (CB1 receptor [1]; Table 1, CP55,940 as agonist): 121%
EC50 (CB1 receptor [1]; [3]): 771 nM
cAMP % inhibition (CB1 receptor [2]; [4]): 55%
EC50 (CB1 receptor [2]; [5]): 354 nM

O=C(Nc1cccc(-c2cccc(N3CCCC3)n2)c1)Nc1ccccc1CCCCOC1CCCCO1 (centres unmarked) [Compound 23c, 1-(3-(6-(Pyrrolidin-1-yl)pyridin-2-yl)phenyl)-3-(2-(4-((tetrahydro-2H-pyran-2-yl)oxy)butyl)phenyl)urea]
β-arrestin % inhibition (CB1 receptor [1]; Table 1, CP55,940 as agonist): 69%
EC50 (CB1 receptor [1]; [3]): 6190 nM
cAMP % inhibition (CB1 receptor [2]; [4]): 20%
EC50 (CB1 receptor [2]; [5]): > 10000 nM

O=C(Nc1cccc(-c2cccc(N3CCCC3)n2)c1)Nc1ccc(Cl)cc1CCCCO [Compound 24a, 1-(4-Chloro-2-(4-hydroxybutyl)phenyl)-3-(3-(6-(pyrrolidin-1-yl)pyridin-2-yl)phenyl)urea]
β-arrestin % inhibition (CB1 receptor [1]; Table 1, CP55,940 as agonist): 126%
EC50 (CB1 receptor [1]; [3]): 276 nM
cAMP % inhibition (CB1 receptor [2]; [4]): 82%
EC50 (CB1 receptor [2]; [5]): 1230 nM

O=C(Nc1cccc(-c2cccc(N3CCCC3)n2)c1)Nc1ccc(Cl)c(CCCCO)c1 [Compound 24b, 1-(4-Chloro-3-(4-hydroxybutyl)phenyl)-3-(3-(6-(pyrrolidin-1-yl)pyridin-2-yl)phenyl)urea]
β-arrestin % inhibition (CB1 receptor [1]; Table 1, CP55,940 as agonist): 125%
EC50 (CB1 receptor [1]; [3]): 1350 nM
cAMP % inhibition (CB1 receptor [2]; [4]): 111%
EC50 (CB1 receptor [2]; [5]): 1420 nM

CN(C(=O)Nc1ccc(Cl)cc1)c1cccc(-c2cccc(N3CCCC3)n2)c1 [Compound 27, 3-(4-Chlorophenyl)-1-methyl-1-(3-(6-(pyrrolidin-1-yl)pyridin-2-yl)phenyl)urea]
β-arrestin % inhibition (CB1 receptor [1]; Table 1, CP55,940 as agonist): 109%
EC50 (CB1 receptor [1]; [3]): 384 nM
cAMP % inhibition (CB1 receptor [2]; [4]): 31%
EC50 (CB1 receptor [2]; [5]): 527 nM

CN(C(=O)N(C)c1cccc(-c2cccc(N3CCCC3)n2)c1)c1ccc(Cl)cc1 [Compound 28, 1-(4-Chlorophenyl)-1,3-dimethyl-3-(3-(6-(pyrrolidin-1-yl)pyridin-2-yl)phenyl)urea]
β-arrestin % inhibition (CB1 receptor [1]; Table 1, CP55,940 as agonist): 62%
EC50 (CB1 receptor [1]; [3]): 2330 nM
cAMP % inhibition (CB1 receptor [2]; [4]): 39%
EC50 (CB1 receptor [2]; [5]): 1670 nM

O=C(Nc1ccc(Cl)cc1)Oc1cccc(-c2cccc(N3CCCC3)n2)c1 [Compound 31, 3-(6-(Pyrrolidin-1-yl)pyridin-2-yl)phenyl (4-chlorophenyl)carbamate]
β-arrestin % inhibition (CB1 receptor [1]; Table 1, CP55,940 as agonist): 58%
EC50 (CB1 receptor [1]; [3]): 8660 nM
cAMP % inhibition (CB1 receptor [2]; [4]): 8.8%
EC50 (CB1 receptor [2]; [5]): > 10000 nM

S=C(Nc1ccc(Cl)cc1)Nc1cccc(-c2cccc(N3CCCC3)n2)c1 [Compound 32, 1-(4-Chlorophenyl)-3-(3-(6-(pyrrolidin-1-yl)pyridin-2-yl)phenyl)thiourea]
β-arrestin % inhibition (CB1 receptor [1]; Table 1, CP55,940 as agonist): 110%
EC50 (CB1 receptor [1]; [3]): 276 nM
cAMP % inhibition (CB1 receptor [2]; [4]): 77%
EC50 (CB1 receptor [2]; [5]): 830 nM

N#C/N=C(/Nc1ccc(Cl)cc1)Nc1cccc(-c2cccc(N3CCCC3)n2)c1 [Compound 35, (Z)-1-(4-Chlorophenyl)-2-cyano-3-(3-(6-(pyrrolidin-1-yl)pyridin-2-yl)phenyl)guanidine]
β-arrestin % inhibition (CB1 receptor [1]; Table 1, CP55,940 as agonist): 69%
EC50 (CB1 receptor [1]; [3]): 3060 nM
cAMP % inhibition (CB1 receptor [2]; [4]): 29%
EC50 (CB1 receptor [2]; [5]): 3340 nM

Clc1ccc(Nc2nnc(-c3cccc(-c4cccc(N5CCCC5)n4)c3)o2)cc1 [Compound 42, N-(4-Chlorophenyl)-5-(3-(6-(pyrrolidin-1-yl)pyridin-2-yl)phenyl)-1,3,4-oxadiazol-2-amine]
β-arrestin % inhibition (CB1 receptor [1]; Table 1, CP55,940 as agonist): 31%
EC50 (CB1 receptor [1]; [3]): 5850 nM
cAMP % inhibition (CB1 receptor [2]; [4]): 43%
EC50 (CB1 receptor [2]; [5]): > 10000 nM

Clc1ccc(-c2nnc(Nc3cccc(-c4cccc(N5CCCC5)n4)c3)o2)cc1 [Compound 45, 5-(4-Chlorophenyl)-N-(3-(6-(pyrrolidin-1-yl)pyridin-2-yl)phenyl)-1,3,4-oxadiazol-2-amine]
β-arrestin % inhibition (CB1 receptor [1]; Table 1, CP55,940 as agonist): 70%
EC50 (CB1 receptor [1]; [3]): 3210 nM
cAMP % inhibition (CB1 receptor [2]; [4]): 20%
EC50 (CB1 receptor [2]; [5]): 4050 nM

O=C(Nc1ccc(Cl)cc1)Nc1ccc(-c2cccc(N3CCCC3)n2)cc1 [Compound 51, 1-(4-Chlorophenyl)-3-(4-(6-(pyrrolidin-1-yl)pyridin-2-yl)phenyl)urea]
β-arrestin % inhibition (CB1 receptor [1]; Table 1, CP55,940 as agonist): 109%
EC50 (CB1 receptor [1]; [3]): 206 nM
cAMP % inhibition (CB1 receptor [2]; [4]): 11%
EC50 (CB1 receptor [2]; [5]): > 10000 nM

O=C(Nc1ccc(Cl)cc1)Nc1ccccc1-c1cccc(N2CCCC2)n1 [Compound 55, 1-(4-Chlorophenyl)-3-(2-(6-(pyrrolidin-1-yl)pyridin-2-yl)phenyl)urea]
β-arrestin % inhibition (CB1 receptor [1]; Table 1, CP55,940 as agonist): 61%
EC50 (CB1 receptor [1]; [3]): 5860 nM
cAMP % inhibition (CB1 receptor [2]; [4]): 110%
EC50 (CB1 receptor [2]; [5]): 3400 nM

O=C(Nc1ccc(Cl)cc1)Nc1cccc(-c2ccnc(N3CCCC3)c2)c1 [Compound 57, 1-(4-Chlorophenyl)-3-(3-(2-(pyrrolidin-1-yl)pyridin-4-yl)phenyl)urea]
β-arrestin % inhibition (CB1 receptor [1]; Table 1, CP55,940 as agonist): 111%
EC50 (CB1 receptor [1]; [3]): 77 nM
cAMP % inhibition (CB1 receptor [2]; [4]): 50%
EC50 (CB1 receptor [2]; [5]): 9790 nM

O=C(Nc1ccc(Cl)cc1)Nc1cccc(-c2ccc(N3CCCC3)nc2)c1 [Compound 61, 1-(4-Chlorophenyl)-3-(3-(6-(pyrrolidin-1-yl)pyridin-3-yl)phenyl)urea]
β-arrestin % inhibition (CB1 receptor [1]; Table 1, CP55,940 as agonist): 105%
EC50 (CB1 receptor [1]; [3]): 880 nM
cAMP % inhibition (CB1 receptor [2]; [4]): 6%
EC50 (CB1 receptor [2]; [5]): > 10000 nM

O=C(Nc1ccc(Cl)cc1)Nc1cccc(-c2cccc(N3CCCC3)c2)c1 [Compound 64]
β-arrestin % inhibition (CB1 receptor [1]; Table 1, CP55,940 as agonist): 110%
EC50 (CB1 receptor [1]; [3]): 27 nM
cAMP % inhibition (CB1 receptor [2]; [4]): 84%
EC50 (CB1 receptor [2]; [5]): 679 nM

O=C(Nc1ccc(Cl)cc1)Nc1cccc(-c2cccc(N3CCOCC3)n2)c1 [Compound 67a, 1-(4-Chlorophenyl)-3-(3-(6-morpholinopyridin-2-yl)phenyl)urea]
β-arrestin % inhibition (CB1 receptor [1]; Table 1, CP55,940 as agonist): 111%
EC50 (CB1 receptor [1]; [3]): 124 nM
cAMP % inhibition (CB1 receptor [2]; [4]): 88%
EC50 (CB1 receptor [2]; [5]): 564 nM

O=C(Nc1ccc(Cl)cc1)Nc1cccc(-c2cccc(N3CCNCC3)n2)c1 [Compound 67b, 1-(4-Chlorophenyl)-3-(3-(6-(piperazin-1-yl)pyridin-2-yl)phenyl)urea]
β-arrestin % inhibition (CB1 receptor [1]; Table 1, CP55,940 as agonist): 110%
EC50 (CB1 receptor [1]; [3]): 25 nM
cAMP % inhibition (CB1 receptor [2]; [4]): 113%
EC50 (CB1 receptor [2]; [5]): 274 nM

CCc1c(C(=O)NCCc2ccc(N3CCCCC3)cc2)[nH]c2ccc(N=C=S)cc12 [GAT100]
EC50 (CB1 receptor [1]; [6]): 9.06 nM
Emax (CB1 receptor [1]): 106%
EC50 (CB1 receptor [2]; [7]): 186 nM
Emax (CB1 receptor [2]): 89.4%

O=C(Nc1ccc(I)cc1)Nc1cccc(-c2cccc(N3CCCC3)n2)c1 [GAT205]
EC50 (CB1 receptor [1]; [6]): 11.5 nM
Emax (CB1 receptor [1]; [8]): 105%
EC50 (CB1 receptor [2]; [7]): 253 nM
Emax (CB1 receptor [2]; [8]): 102%

CCc1c(C(=O)NCCc2ccc(N3CCCCC3)cc2)[nH]c2ccc(N=[N+]=[N-])cc12 [GAT206]
EC50 (CB1 receptor [1]; [6]): 28 nM
Emax (CB1 receptor [1]; [8]): 106%
EC50 (CB1 receptor [2]; [7]): 391 nM
Emax (CB1 receptor [2]; [8]): 89%

O=C(NCCc1ccc(N2CCCCC2)cc1)c1[nH]c2ccc(Cl)cc2c1CCN=C=S [GAT209]
EC50 (CB1 receptor [1]; [6]): 225 nM
Emax (CB1 receptor [1]): 104%
EC50 (CB1 receptor [2]; [7]): > 10000 nM
Emax (CB1 receptor [2]): 0%

O=C(Nc1ccc(C(=O)c2ccccc2)cc1)Nc1cccc(-c2cccc(N3CCCC3)n2)c1 [GAT300]
EC50 (CB1 receptor [1]; [6]): 28.4 nM
Emax (CB1 receptor [1]; [8]): 106%
EC50 (CB1 receptor [2]; [7]): 169 nM
Emax (CB1 receptor [2]; [8]): 99.6%

[N-]=[N+]=Nc1ccc(NC(=O)Nc2cccc(-c3cccc(N4CCCC4)n3)c2)cc1 [GAT331]
EC50 (CB1 receptor [1]; [6]): 106 nM
Emax (CB1 receptor [1]; [8]): 138%
EC50 (CB1 receptor [2]; [7]): 297 nM
Emax (CB1 receptor [2]; [8]): 128%

O=C(Nc1ccc(N=C=S)cc1)Nc1cccc(-c2cccc(N3CCCC3)n2)c1 [GAT332]
EC50 (CB1 receptor [1]; [6]): 24 nM
Emax (CB1 receptor [1]): 106%
EC50 (CB1 receptor [2]; [7]): 119 nM
Emax (CB1 receptor [2]): 78.9%
